# Laboratory results published in US4372949A, “Treatment of cancer with carcinostatic and immunostimulating agent containing lysophospholipid and phospholipid” (Toyama Chemical Co., Ltd., priority 1979, dated 1983).
# Assays:
# [1] = tested on: Lewis lung cancerous cells; test: Inhibitory effect against metastasis of Lewis lung cancer; assay type: in vivo, mice (BDF1 strain); details: L-lysolecithin 40 mg/kg i.p., 10 days
# Experimental: 1×10^6 Lewis lung cancerous cells were given intravenously to BDF1 strain (female, 13-week old) mice, and after 24 hours, L-lysolecithin (40 mg/kg) was administered intraperitoneally while a mixture of a fat emulsion (20 ml/kg) and L-lysolecithin (40 mg/kg) was administered intravenously, each for a period of 10 days repeatedly, and at the 11th day, the breast of each test mouse was cut open and the dry weight of the lung (mg mean ± S.E.) was measured. The inhibitory effect was judged by the ratio to the control group (T/C).
# mice = test: Acute toxicity; assay type: in vivo; details: female, intravenous injection
# Excerpt: The results of measurement of acute toxicity on some typical compounds prepared according to this invention are shown in Table 9.
# (Test animal: mice, female; intravenous injection)
# L-1210 leukemic cells = test: Pre-administration effect to L-1210 (L-1210 allograft); assay type: in vivo, mice (ddN strain); details: i.p., 7 days pre-administration
# Experimental: Each test compound was repeatedly administered (at a dose of 40 mg/kg as calculated in terms of L-lysolecithin) intraperitoneally to ddN strain mice (male, 6-week old) for a period of 7 days, and after one-week no-administration period, 1×10^6 L-1210 leukemic cells were inoculated intraperitoneally and the average number of survival days of the test animal was determined.
# [2] = Table 5, 40 mg/kg L-lysolecithin (No. 7: + 20 ml/kg fat emulsion)
substance,measurement,setting,value
L-lysolecithin,Dry lung weight (mean ± S.E.),[1],34.3 ± 1.6 mg
same,Increased weight (mean ± S.E.),[1],4.7 ± 1.6 mg
same,T/C,[1]; ratio to control group,29.0%
same,LD50,mice,122 mg/kg
same,Average number of survival days,"L-1210 leukemic cells; Table 4, 40 mg/kg as L-lysolecithin",> 21.0 days
same,Number of survival days (mean ± S.E.),L-1210 leukemic cells; [2],21.0 days
same,Number of survivor for 21 days/Number of mice tested,L-1210 leukemic cells; [2],6/6
